This passage reports Ki results from publication PMC7381538, “Broad spectrum antibiotic-degrading metallo-β-lactamases are phylogenetically diverse” (Protein & Cell, 2020).

The target of one test is SPR-1trunc (Serratia proteamaculans, UniProt Z9GZR1QZ95). It is filed as biochemical. The following applies: beta-lactam substrate and mode only in supplement.
The target of another test is SER-1trunc. In kind it is biochemical. The following applies: beta-lactam substrate and mode only in supplement.

Sequence of SPR-1trunc (Z9GZR1QZ95 50-298 limits assumed): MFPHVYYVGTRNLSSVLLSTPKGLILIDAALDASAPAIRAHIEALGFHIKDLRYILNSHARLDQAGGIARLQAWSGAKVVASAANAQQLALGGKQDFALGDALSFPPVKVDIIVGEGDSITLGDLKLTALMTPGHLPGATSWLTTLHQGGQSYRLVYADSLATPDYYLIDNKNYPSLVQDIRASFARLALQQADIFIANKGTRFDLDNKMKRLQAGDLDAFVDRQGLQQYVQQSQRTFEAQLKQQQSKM

Turning to `O=C(O)[C@H]1/C(=C/CO)O[C@@H]2CC(=O)N21` [CA, clavulanic acid], the Ki was 201 µM at SPR-1trunc and 290 µM at SER-1trunc.

By Ki is commonly meant the equilibrium dissociation constant of an inhibitor or competing ligand from its target.
